Source: PMC7471466 (Acta Pharmacologica Sinica, 2020)
pIC50: −log10 of the molar value. Like-named read-outs stand apart in the source and are kept apart here.

How the values were obtained:
[1] = patients, high dose (>50 mg MTX/kg) therapy regimens; cited from earlier work
AOX3 [2] = conditions: rat livers, 20, 50, 100 mg·kg−1·d−1 NIM for 5 days, dose-dependent
AOX1 mRNA = conditions: rat hepatocytes, 0–20 μM NIM for 24 h
AOX [3] = conditions: NIM 5–20 μM directly added to the RLC incubation of MTX
human hepatocytes = conditions: read-out: IC50 (toxic to hepatocytes); cited from earlier work
[4] = system: sandwich-cultured rat hepatocytes; conditions: concentration-dependent
rat hepatocytes = conditions: read-out: IC50 (toxic to hepatocytes); cited from earlier work
OATPs = conditions: cited from earlier work
AOX3 mRNA [5] = conditions: rat hepatocytes, 0–20 μM NIM for 24 h
MRP2 = conditions: cited from earlier work
AOX3 [6] = conditions: rat hepatocytes, 0–20 μM NIM for 24 h, concentration-dependent
AOX1 [7] = conditions: rat hepatocytes, 0–20 μM NIM for 24 h, concentration-dependent
AOX3 mRNA [8] = conditions: rat livers, 20, 50, 100 mg·kg−1·d−1 NIM for 5 days
AOX1 [9] = conditions: rat livers, 20, 50, 100 mg·kg−1·d−1 NIM for 5 days, dose-dependent
AOX [10] = system: AOX
AOX [11] = format: cell-based, human; conditions: for increase in 7-OH MTX yields vs control: human hepatocytes
AOX [12] = test: AOX activity in rat hepatocytes, 7-OH MTX formation from probe substrate MTX; format: cell-based; conditions: for increase in 7-OH MTX yield vs control: then MTX 50 μM
[13] = NIM-treated rats, 100 mg·kg−1·d−1, 5 days, vs nontreated rats

## CN(Cc1cnc2nc(N)nc(N)c2n1)c1ccc(C(=O)N[C@@H](CCC(=O)O)C(=O)O)cc1 [MTX, methotrexate]
[1]
  MTX excreted as 7-OH MTX: ≤ 33%

## CS(=O)(=O)Nc1ccc([N+](=O)[O-])cc1Oc1ccccc1 [NIM, nimesulide]
AOX3 [2]
  AOX3 protein level: decreased
AOX1 mRNA
  AOX1 mRNA level: did not alter
AOX [3]
  7-OH MTX formation vs incubation containing no NIM: no significant difference
male, Wistar, rat, feces, oral
  increase in accumulated excretion of 7-OH MTX in 0–24 h feces: 2.1 fold
male, Wistar, rat, urine, oral
  increase in accumulated excretion of 7-OH MTX in 0–24 h urine: 5.2 fold
  increase in accumulated excretion of MTX in 0–24 h urine: 1.8 fold
rats, 100 mg·kg−1·d−1 NIM for 5 days, then oral MTX 50 mg/kg
  accumulated excretion of MTX in 0–24 h feces: no significant change
Human hepatocytes
  pIC50: 3.67
[4]
  cellular plus biliary accumulation of MTX: reduced
Rat hepatocytes
  pIC50: 4.40
OATPs
  inhibition of OATPs: inhibitor
AOX3 mRNA [5]
  AOX3 mRNA level: did not alter
MRP2
  inhibition of MRP2: inhibitor
AOX3 [6]
  AOX3 protein level: decreased
AOX1 [7]
  AOX1 protein level: increased
AOX3 mRNA [8]
  AOX3 mRNA level: no significant alteration
AOX1 [9]
  AOX1 protein level: increased
AOX [10]; [13]
  increase in AOX-mediated metabolite from JNJ-38877605 in liver cytosol: 3.8 fold
  increase in AOX-mediated metabolite from SGX523 in liver cytosol: 3.4 fold
  increase in AOX-mediated metabolite from phthalazine in liver cytosol: 2.5 fold
AOX [10]; rats pretreated with 20 mg·kg−1·d−1 NIM for 5 days
  increase in 7-OH MTX formation in liver cytosol vs vehicle: 1.9 fold
AOX [10]; rats pretreated with 50 mg·kg−1·d−1 NIM for 5 days
  increase in 7-OH MTX formation in liver cytosol vs vehicle: 3.2 fold
AOX [10]; rats pretreated with 100 mg·kg−1·d−1 NIM for 1 day
  increase in 7-OH MTX formation in liver cytosol vs vehicle: 1.0 fold
AOX [10]; rats pretreated with 100 mg·kg−1·d−1 NIM for 3 days
  increase in 7-OH MTX formation in liver cytosol vs vehicle: 2.0 fold
AOX [10]; rats pretreated with 100 mg·kg−1·d−1 NIM for 5 days (dose experiment)
  increase in 7-OH MTX formation in liver cytosol vs vehicle: 3.7 fold
AOX [10]; rats pretreated with 100 mg·kg−1·d−1 NIM for 5 days (time experiment)
  increase in 7-OH MTX formation in liver cytosol vs vehicle: 3.8 fold
AOX [11]; 10 μM NIM for 24 h
  increase in 7-OH MTX yields vs control: 1.3 fold
AOX [11]; 50 μM NIM for 24 h
  increase in 7-OH MTX yields vs control: 1.7 fold
AOX [11]; 100 μM NIM for 24 h
  increase in 7-OH MTX yields vs control: 2.0 fold
AOX [11]; primary human hepatocytes, NIM (20 μM) for 24 h
  increase in 7-OH MTX formation: 2.0 fold
AOX [12]; 5 μM NIM for 24 h
  increase in 7-OH MTX yields vs control: 1.3 fold
AOX [12]; 10 μM NIM for 24 h
  increase in 7-OH MTX yields vs control: 1.8 fold
AOX [12]; 20 μM NIM for 12 h
  increase in 7-OH MTX yield vs control: 1.7 fold
AOX [12]; 20 μM NIM for 24 h (concentration experiment)
  increase in 7-OH MTX yields vs control: 3.1 fold
AOX [12]; 20 μM NIM for 24 h (induction time experiment)
  increase in 7-OH MTX yield vs control: 2.5 fold
AOX [12]; 20 μM NIM for 48 h
  increase in 7-OH MTX yield vs control: 2.7 fold
AOX [12]; 20 μM NIM for 72 h
  increase in 7-OH MTX yield vs control: 2.7 fold
